Data reported in ChEMBL document CHEMBL1131723, “Synthesis and structure-activity relationship of novel glycylcycline derivatives leading to the discovery of GAR-936” (1999).
In brackets after ≈: the same amount, converted by molar mass.

How the values were obtained:
Format in all cases: functional
Staphylococcus aureus [1] = assay: In vitro antibacterial activity against Staphylococcus aureus Smith sensitive
Escherichia coli [2] = assay: In vitro antibacterial activity against Escherichia coli J3272 Tet D
Staphylococcus aureus [3] = assay: In vitro antibacterial activity against Staphylococcus aureus UBMS 90-3 sensitive
Escherichia coli [4] = assay: In vitro antibacterial activity against Escherichia coli UBMS 90-5 sensitive
Escherichia coli [5] = assay: In vitro antibacterial activity against Escherichia coli PRP1 Tet A
Enterococcus = assay: In vitro antibacterial activity against Enterococcus ATCC 29212
Staphylococcus aureus [6] = assay: In vitro antibacterial activity against Staphylococcus aureus UBMS 88-7 Tet K
Staphylococcus aureus [7] = assay: In vitro antibacterial activity against Staphylococcus aureus UBMS 90-1 Tet M
Escherichia coli [8] = assay: In vitro antibacterial activity against Escherichia coli J3272 Tet C
Escherichia coli [9] = assay: In vitro antibacterial activity against Escherichia coli UBMS 88-1 Tet B
Escherichia coli [10] = assay: In vitro antibacterial activity against Escherichia coli UBMS 90-4 Tet M

| MIC (Staphylococcus aureus [1]) [µg/mL] | MIC (Escherichia coli [2]) [µg/mL] | MIC (Staphylococcus aureus [3]) [µg/mL] | MIC (Escherichia coli [4]) [µg/mL] | MIC (Escherichia coli [5]) [µg/mL] | MIC (Enterococcus) [µg/mL] | MIC (Staphylococcus aureus [6]) [µg/mL] | MIC (Staphylococcus aureus [7]) [µg/mL] | MIC (Escherichia coli [8]) [µg/mL] | MIC (Escherichia coli [9]) [µg/mL] | MIC (Escherichia coli [10]) [µg/mL] | Compound |
| --- | --- | --- | --- | --- | --- | --- | --- | --- | --- | --- | --- |
| 0.5 (≈ 0.843 µM) | 32 (≈ 53.9 µM) | 0.5 (≈ 0.843 µM) | 16 (≈ 27 µM) | > 32 | 0.5 (≈ 0.843 µM) | 2 (≈ 3.37 µM) | 1 (≈ 1.69 µM) | > 32 | > 32 | – | CN(C)c1cc(NC(=O)CBr)c(O)c2c1CC1CC3[C@H](N(C)C)C(=O)C(C(N)=O)=C(O)[C@@]3(O)C(=O)C1=C2O (some centres undefined) |
| 0.12 (≈ 0.206 µM) | 0.12 (≈ 0.206 µM) | 0.12 (≈ 0.206 µM) | 0.25 (≈ 0.428 µM) | 0.5 (≈ 0.857 µM) | 0.12 (≈ 0.206 µM) | 0.5 (≈ 0.857 µM) | 0.12 (≈ 0.206 µM) | 0.25 (≈ 0.428 µM) | 0.25 (≈ 0.428 µM) | 0.25 (≈ 0.428 µM) | CN(C)c1cc(NC(=O)CN2CCCC2)c(O)c2c1CC1CC3[C@H](N(C)C)C(=O)C(C(N)=O)=C(O)[C@@]3(O)C(=O)C1=C2O (some centres undefined) |
| 0.5 (≈ 0.92 µM) | 0.5 (≈ 0.92 µM) | 0.5 (≈ 0.92 µM) | 1 (≈ 1.84 µM) | 16 (≈ 29.4 µM) | 0.5 (≈ 0.92 µM) | 16 (≈ 29.4 µM) | 1 (≈ 1.84 µM) | 8 (≈ 14.7 µM) | 1 (≈ 1.84 µM) | – | CNCC(=O)Nc1cc(N(C)C)c2c(c1O)C(=O)C1=C(O)[C@]3(O)C(O)=C(C(N)=O)C(=O)[C@@H](N(C)C)C3CC1C2 (some centres undefined) |
| 0.06 (≈ 0.108 µM) | 0.12 (≈ 0.215 µM) | 0.03 (≈ 0.0538 µM) | 0.25 (≈ 0.448 µM) | 1 (≈ 1.79 µM) | 0.06 (≈ 0.108 µM) | 0.25 (≈ 0.448 µM) | 0.25 (≈ 0.448 µM) | 1 (≈ 1.79 µM) | 0.25 (≈ 0.448 µM) | 0.25 (≈ 0.448 µM) | CN(C)CC(=O)Nc1cc(N(C)C)c2c(c1O)C(=O)C1=C(O)[C@]3(O)C(O)=C(C(N)=O)C(=O)[C@@H](N(C)C)C3CC1C2 (some centres undefined) |
| 2 (≈ 3.34 µM) | 32 (≈ 53.4 µM) | 2 (≈ 3.34 µM) | > 32 | > 32 | 2 (≈ 3.34 µM) | 32 (≈ 53.4 µM) | 4 (≈ 6.67 µM) | > 32 | > 32 | – | CN(C)c1cc(NC(=O)CN2CCOCC2)c(O)c2c1CC1CC3[C@H](N(C)C)C(=O)C(C(N)=O)=C(O)[C@@]3(O)C(=O)C1=C2O (some centres undefined) |
| 4 (≈ 6.89 µM) | 32 (≈ 55.1 µM) | 4 (≈ 6.89 µM) | > 32 | > 32 | 4 (≈ 6.89 µM) | 32 (≈ 55.1 µM) | 32 (≈ 55.1 µM) | > 32 | > 32 | > 32 | CN(C)c1cc(NC(=O)Cn2ccnc2)c(O)c2c1CC1CC3[C@H](N(C)C)C(=O)C(C(N)=O)=C(O)[C@@]3(O)C(=O)C1=C2O (some centres undefined) |
| 0.25 (≈ 0.439 µM) | 0.12 (≈ 0.211 µM) | 0.12 (≈ 0.211 µM) | 0.25 (≈ 0.439 µM) | 1 (≈ 1.76 µM) | 0.25 (≈ 0.439 µM) | 2 (≈ 3.51 µM) | 0.25 (≈ 0.439 µM) | 0.5 (≈ 0.878 µM) | 0.5 (≈ 0.878 µM) | 0.25 (≈ 0.439 µM) | CN(C)c1cc(NC(=O)CN2CCC2)c(O)c2c1CC1CC3[C@H](N(C)C)C(=O)C(C(N)=O)=C(O)[C@@]3(O)C(=O)C1=C2O (some centres undefined) |
| 0.25 (≈ 0.418 µM) | 0.12 (≈ 0.201 µM) | 0.12 (≈ 0.201 µM) | 0.25 (≈ 0.418 µM) | 1 (≈ 1.67 µM) | 0.12 (≈ 0.201 µM) | 2 (≈ 3.35 µM) | 0.25 (≈ 0.418 µM) | 0.25 (≈ 0.418 µM) | 0.25 (≈ 0.418 µM) | 0.25 (≈ 0.418 µM) | CN(C)c1cc(NC(=O)CNC2CCCC2)c(O)c2c1CC1CC3[C@H](N(C)C)C(=O)C(C(N)=O)=C(O)[C@@]3(O)C(=O)C1=C2O (some centres undefined) |
| 0.25 (≈ 0.437 µM) | 0.12 (≈ 0.21 µM) | 0.25 (≈ 0.437 µM) | 0.5 (≈ 0.875 µM) | 2 (≈ 3.5 µM) | 0.25 (≈ 0.437 µM) | 2 (≈ 3.5 µM) | 0.5 (≈ 0.875 µM) | 0.5 (≈ 0.875 µM) | 0.5 (≈ 0.875 µM) | 0.25 (≈ 0.437 µM) | CCCNCC(=O)Nc1cc(N(C)C)c2c(c1O)C(=O)C1=C(O)[C@]3(O)C(O)=C(C(N)=O)C(=O)[C@@H](N(C)C)C3CC1C2 (some centres undefined) |
| 2 (≈ 4.37 µM) | 4 (≈ 8.74 µM) | 2 (≈ 4.37 µM) | 16 (≈ 35 µM) | > 32 | 4 (≈ 8.74 µM) | 16 (≈ 35 µM) | 8 (≈ 17.5 µM) | 32 (≈ 69.9 µM) | > 32 | 16 (≈ 35 µM) | CN(C)c1ccc(O)c2c1C[C@H]1C[C@H]3[C@H](N(C)C)C(O)=C(C(N)=O)C(=O)[C@@]3(O)C(O)=C1C2=O [MINOCYCLINE] |
| 0.25 (≈ 0.563 µM) | 8 (≈ 18 µM) | 0.25 (≈ 0.563 µM) | 1 (≈ 2.25 µM) | 32 (≈ 72 µM) | 16 (≈ 36 µM) | > 32 | > 32 | > 32 | > 32 | > 32 | CN(C)[C@@H]1C(O)=C(C(N)=O)C(=O)[C@@]2(O)C(O)=C3C(=O)c4c(O)cccc4[C@@](C)(O)[C@H]3C[C@@H]12 [TETRACYCLINE] |
| 0.25 (≈ 0.427 µM) | 0.12 (≈ 0.205 µM) | 0.25 (≈ 0.427 µM) | 0.25 (≈ 0.427 µM) | 0.25 (≈ 0.427 µM) | 0.12 (≈ 0.205 µM) | 0.5 (≈ 0.854 µM) | 0.12 (≈ 0.205 µM) | 0.25 (≈ 0.427 µM) | 0.5 (≈ 0.854 µM) | 0.12 (≈ 0.205 µM) | CN(C)c1cc(NC(=O)CNC(C)(C)C)c(O)c2c1C[C@H]1C[C@H]3[C@H](N(C)C)C(O)=C(C(N)=O)C(=O)[C@@]3(O)C(O)=C1C2=O [TIGECYCLINE] |
